Reference: patent US20230301302A1, “AGROCHEMICAL ADJUVANTS” (Croda International Plc, priority 2020, published 2023)

Experiments:
[1] = test system: butterhead lettuce leaves; assay: Phytotoxicity on leaves, necrosis score; format: in vivo; conditions: scale 0 (no necrosis) to 3 (extended necrosis)
Method: (§1) Phytotoxicity of the diketopiperazines was assessed on soybean and butterhead lettuce leaves. Soybean seeds were inoculated with Bradyrhizobium japnicum and sown in Levington's M3 compost in 9 cm^2 plastic pots. Soybean plants were given supplementary lighting with SON-T bulbs. Biological control was used to prevent thrip damage (Biolone—Amblyseius cucumeris). The glasshouse temperatures were set to maintain 22° C.±2 during the day and 19° C.±2 at night. Lettuce plants were grown in the same manner without rhizobacteria inoculation. Supplementary lighting was provided by LED bulbs. All plants were maintained as well watered and grown for fourteen days. Test compounds/extracts were resuspended in 2% DMSO ([…]). Synperonic Al1 LQ was used a positive control and UEP-100 as a negative control. Treatments were applied as six 10 μL droplets on the leaf's surface. Phytotoxic tissue damage was assessed 1- and 7-days post-treatment and on a scale of 0 to 3. The phytotoxic effect of the compounds/extract at 1 g/L is represented as a mean phytotoxic necrosis score, where 0=no necrosis; 1=slight spot-like necrosis of the inoculation site; 2=ring-shaped necrosis; 3=extended necrosis.

[2] = test system: soybean leaves; assay: Phytotoxicity on leaves, necrosis score; format: in vivo; conditions: Soy, 1 g/L, scale 0 (no necrosis) to 3 (extended necrosis)
Method: as §1

[3] = test system: Botrytis cinerea (ATCC 90479); assay: Adjuvancy: agar growth inhibition assay (colony diameter) with fungicide and/or adjuvant; format: cell-based; conditions: for inherent fungicidal activity: adjuvant on its own, any of the concentrations tested
Excerpt: As a measure of the adjuvant activity in relation to the activity of the fungicide alone (e.g., pyraclostrobin) to B. cinerea a value of percent inhibition (adjuvant and fungicide) divided by percent inhibition (fungicide) can be defined, with higher values desired. A value of 1 would therefore represent equal activity of the adjuvant/fungicide combination to the fungicide alone, whereas a value above 1 would represent higher activity with the adjuvant/fungicide combination than the fungicide alone. The actives of the present invention may have a value greater than 1. Preferably greater than 1.5, most preferably greater than 2.
Percent Inhibition—The percent inhibition will be understood to represent the amount the fungicide and/or adjuvant that inhibits the visible growth of the microorganism after 48 hours incubation at 22° C. relative to vehicle treated controls. This is calculated using the following formula:
where: • ØC=diameter of the colony grown on agar supplemented with vehicle (i.e. vehicle treated control), and • ØT=diameter of the colony grown on agar supplemented with fungicide and/or adjuvant formulated in an appropriate vehicle (i.e. solvent such as water C2H5OH, CH3OH, CH3CN, DMSO).
Fold Change—The fold change is a measure of the adjuvant/fungicide combination in inhibiting a microorganism compared to the fungicide alone. This indicates how the adjuvant performs relative to the fungicide alone. This is calculated using the following formula:
where: • INHAF=percent inhibition of fungal growth when treated with fungicide and adjuvant, and • INHF=percent inhibition of fungal growth when treated with fungicide alone.
Botrytis cinerea (ATCC 90479) was cultured on Difco Potato Dextrose Agar (PDA) for 7 days with diurnal UV cycles (12 h UV light and 12 h dark). Spores were harvested in a buffered, sterile saline solution (w/v: 0.9% NaCl with 1% Tween 80) and counted using a haemocytometer. The spore suspension was adjusted to a final concentration of 8.5×10^6 spores/mL to create a standardised inoculum.
To prepare hyphal fragments for adjuvant testing, 8.5×10^4 spores were used to inoculate 10 mL of Difco Potato Dextrose Broth in a 150×25 mm tube. The tube was incubated at 220 RPM, 22° C. for 48 hours. To create hyphal fragments from the culture, the culture was transferred to a 50 mL plastic conical tube containing approximately 20 sterile 5 mm diameter glass beads and vortexed for 5 min. After vortexing the tube was allowed to stand for 5 min to allow large mycelial clumps to settle and then the top layer containing hyphal fragments was removed and used as inocula for growth inhibition assays.
Fungicides and adjuvants were dissolved in methanol and added to molten PDA (˜50° C.) and then the agar was distributed in the wells of 12 well multiwell plates (1 mL/well). The plates were cooled to room temperature and 10 μL of hyphal inoculum was added to the centre of each well. The plates were incubated at 22° C. for 48 hours and then the colony diameter was measured using a digital caliper. The biological growth control consisted of hyphae and vehicle (0.07% methanol), the negative control was media and vehicle (0.07% methanol).
The effect of the adjuvants on fungicidal activity is represented as fold increase in growth inhibition. A value of 1 indicates no increase in fungicidal activity. A value less than 1 indicates reduced fungicidal activity and a value greater than 1 indicates increased fungicidal activity.

[4] = test system: African green monkey Vero kidney cells (ATCC CCL-81); assay: Cytotoxicity, alamarBlue cell viability; format: cell-based; conditions: highest concentration tested (128 μg/mL); 24 hours
Method: The cytotoxicity of the diketopiperazines was assessed in vitro against African green monkey Vero kidney cells (ATCC CCL-81). Cells were cultured in 15 mL of Eagle's minimal essential medium (Sigma) supplemented with 10% (v/v) fetal bovine serum (VWR), […] penicillin and 0.1 mg/mL streptomycin in T75 cm^2 cell culture flasks. Cells were incubated for 24 hours at 37° C. in a humidified atmosphere of 5% CO2. Culture medium was refreshed every 2-3 days and cells were not allowed to exceed 80% confluency. At 80% confluency the cells were counted, diluted and plated into 96 well flat bottom cell culture plates (Corning) at a cell density of 10,000 cells per well in 90 μL of growth medium. The plates were incubated at 37° C. in a humidified atmosphere of 5% CO2 for 24 hours to allow cells to adhere to the plate before treatment. After 24 hours, adjuvants were solubilised in DMSO, serially diluted and added to the wells at final concentrations ranging from 1 μg/mL to 128 μg/mL. DMSO was used as the vehicle at a final concentration of 1% in the wells. The plates were incubated at 37° C. in a humidified atmosphere of 5% CO2 for 24 hours after which alamarBlue (Invitrogen) was added to each well at 10% of the culture volume. Fluorescence was monitored using a Thermo Scientific Varioskan Flash plate reader at 560/12 excitation, 590 nm emission both at time zero and 4 hrs after alamarBlue addition. After subtracting the time zero emission 590 nm measurement from the final reading, the inferred percentage of cell viability relative to the vehicle control wells was calculated.

[5] = Pyra 0.0156 μg/mL, adjuvant 128 μg/mL, vs pyraclostrobin alone, 48 h, 22° C.
[6] = Pyra 0.0313 μg/mL, adjuvant 128 μg/mL, vs pyraclostrobin alone, 48 h, 22° C.
[7] = Pyra 0.0625 μg/mL, adjuvant 128 μg/mL, vs pyraclostrobin alone, 48 h, 22° C.

For CN1C(=O)[C@@H]2CCCN2C(=O)/C1=C/c1ccccc1 [DKP (Ia)], the “Mean Score (phytotoxic necrosis)” value ([1]; Day 1, 1 g/L) was 0, the “Mean Score (phytotoxic necrosis)” value ([1]; Day 7, 1 g/L) was “did not exhibit any phytotoxicity” and the “Mean Score (phytotoxic necrosis)” value ([1]; Day 7, 1 g/L, listed as DKP (1a)) was 0. The “Mean Score (phytotoxic necrosis)” value ([2]; Day 1) was 0, the “Mean Score (phytotoxic necrosis)” value ([2]; Day 7) was “did not exhibit any phytotoxicity” and the “Mean Score (phytotoxic necrosis)” value ([2]; Day 7, listed as DKP (1a)) was 0. The “Fold Change in Growth Inhibition” value [3, 5] was 2.18, the “Fold Change in Growth Inhibition” value [3, 6] was 3.31 and the “Fold Change in Growth Inhibition” value [3, 7] was 1.87. For the same compound, the “Fold Change in Growth Inhibition” value ([3]; Teb 0.095 μg/mL, adjuvant 25 μg/mL, vs tebuconazole alone) was 1.97, the “Fold Change in Growth Inhibition” value ([3]; Teb 0.095 μg/mL, adjuvant 50 μg/mL, vs tebuconazole alone) was 1.78 and the “Fold Change in Growth Inhibition” value ([3]; Teb 0.095 μg/mL, adjuvant 100 μg/mL, vs tebuconazole alone) was 2.00. The “Fold Change in Growth Inhibition” value ([3]; Teb 0.19 μg/mL, adjuvant 25 μg/mL, vs tebuconazole alone) was 4.39, the “Fold Change in Growth Inhibition” value ([3]; Teb 0.19 μg/mL, adjuvant 50 μg/mL, vs tebuconazole alone) was 1.78 and the “Fold Change in Growth Inhibition” value ([3]; Teb 0.19 μg/mL, adjuvant 100 μg/mL, vs tebuconazole alone) was 2.76. The inherent fungicidal activity [3] was “did not demonstrate any inherent fungicidal activity” and the “cytotoxicity against Vero cells” value [4] was “did not exhibit any cytotoxicity”.

With CN1C(=O)[C@@H]2CCCN2C(=O)/C1=C\c1ccccc1 [DKP (Ib)] the inherent fungicidal activity [3] was “did not demonstrate any inherent fungicidal activity” and the “cytotoxicity against Vero cells” value [4] was “did not exhibit any cytotoxicity”.

O=C1N/C(=C\c2ccccc2)C(=O)N2CCC[C@@H]12 [DKP (Ic)] was tested, and the “Fold Change in Growth Inhibition” value [3, 5] was 1.52, the “Fold Change in Growth Inhibition” value [3, 6] was 3.14 and the “Fold Change in Growth Inhibition” value [3, 7] was 1.48. For the same compound, the inherent fungicidal activity [3] was “did not demonstrate any inherent fungicidal activity” and the “cytotoxicity against Vero cells” value [4] was “did not exhibit any cytotoxicity”.

For O=C1N/C(=C/c2ccccc2)C(=O)N2CCC[C@@H]12 [DKP (Id)], the inherent fungicidal activity [3] was “did not demonstrate any inherent fungicidal activity” and the “cytotoxicity against Vero cells” value [4] was “did not exhibit any cytotoxicity”.
